In brackets after ≈: the same amount, converted by molar mass. Read-outs that look alike come from different tables or passages of the source.
Experiments:
[1] = in vivo; details: Artemia salina (brine shrimp), in vivo; for LC50 at 24 h: other: exposure in seawater in microplate wells
Protocol: (§1) Brine shrimp eggs (Artemia salina) were obtained from Brine Shrimp Direct, Ogden, Utah and stored at 10° C. until used. Eggs (400 mg) were added to 1 l of deionized water containing 40 g of sea salts (Sigma Chemical Co., St. Louis, Mo.).
(§2) Serial dilutions were performed in 100 μl of seawater in triplicate in the wells of a 96-well microplate to give appropriate concentrations. Control wells for both water and DMSO were included with each experiment. […] The number of non-motile, and the total number of, naupli were counted in each well using a binocular microscope (10×).

[2] = Decomposition temperature by differential scanning calorimetry; type: physicochemical; details: DSC, onset of decrease in slope of temperature-heat flow curve; unit not given (scans in ° C.)
Protocol: A dual cell Perkin Elmer differential scanning calorimeter (PE DSC 7, Norwalk, Conn.) was used to determine the thermal transitions of the compounds. All scans were carried out from 30° C. to 200° C. at a heating and cooling rate of 10° C./minute and 40° C./min, respectively, except for 1-(3-methoxybenzyl)-3-(1-propenyl) thiourea, for which the scans were carried out from 0° C. to 200° C. at a heating rate of 10° C./min, and 1-(3-methoxybenzyl)-3-octadecyl thiourea, for which both the heating and cooling rates were 10° C./min. 1,3-di(3-methoxybenzyl) thiourea and 1-(3-methoxybenzyl)-3-dodecyl thiourea were heated to 300° C., and 1-(3-methoxybenzyl)-3-(4-methoxybenzoyl) thiourea was heated to 250° C. to determine the decomposition temperature. The decomposition temperature was taken as the onset of a decrease in the slope of the temperature-heat flow DSC curve. The first heating curve was recorded in all cases, and liquid nitrogen was used to quench the samples after the first heating.

[3] = Oxidative Stability by Rotating Pressure Vessel (RBOT) of refined meadowfoam seed oil plus thiourea compounds; details: for Oxidative Stability (RBOT): Refined Meadowfoam Seed Oil plus 0.1% compound
Description: Another presently preferred method of determining oxidative stability of lipids and oils employs the Oxidative Stability by Rotating Pressure Vessel (RBOT) test. In this test, oxidative stability, determined according to the ASTM D2272-98 test method (ASTM, 2001, “Standard Test Method for Oxidation Stability of Steam Turbine Oils by Rotating Pressure Vessel,” in Book of Standards, Vol. 05.01., American Society for Testing and Materials, West Conshohocken, Pa.), measures the time for oxygen pressure to decrease in a closed stainless steel vessel containing a lipid or oil when heated with a copper coil catalyst. Oxygen taken up by the lipid or oil during the reaction is an indication of oil degradation.
In these experiments, Oxidative Stability by Rotating Pressure Vessel (RBOT) tests were performed with different 3-methoxybenzyl thiourea compounds synthesized in Example 3 that were mixed in different quantities with different mono- and polyunsaturated vegetable oils. Hexane was used to clean and store the copper coils, but all other aspects of the Oxidative Stability by Rotating Pressure Vessel (RBOT) test were the same as in the standard ASTM D2272–98 test method (ASTM, 2001, “Standard Test Method for Oxidation Stability of Steam Turbine Oils by Rotating Pressure Vessel,” in Book of Standards, Vol. 05.01., American Society for Testing and Materials, West Conshohocken, Pa.).

[4] = UVB and UVA molar absorptivities in chloroform; type: physicochemical; details: 0.01 mg/ml in chloroform; for UVBMAX Molar Absorptivity: Amax in 280–320 nm; for UVAMAX Molar Absorptivity: Amax in 320–400 nm
Protocol: The compounds synthesized in Example 3 were tested to determine their ability to absorb […] UVA light. UV spectra of quantitatively weighed and diluted samples (0.01 mg/ml) in chloroform were scanned from 244–450 nm at 240 nm/min on a Beckman DU 640 spectrophotometer (Beckman Coulter, Inc., Fullerton, Calif.). Amax in the 280–320 nm range was determined and converted to molar absorptivity for the UVB region, and Amax in the 320–400 nm range was determined and converted to molar absorptivity for the UVA region.

[5] = Solubility in refined meadowfoam seed oil (HPLC); type: physicochemical; details: oil or lipid, thermodynamic from solid, cooled to room temperature overnight
Protocol: Typical retention times were 7–9 min for the thioureas. Samples were weighed accurately (about 0.1 g) into 1.00 g of refined meadowfoam seed oil and heated to temperature (either 30° C. or 50° C.) for 4 h with occasional shaking. The samples were cooled to room temperature overnight, centrifuged and 0.3 g of the supernatant oil was removed and diluted with 1 ml CHCl3 for testing.

[6] = Oxidative Stability Index (OSI) of refined meadowfoam seed oil plus additives
Description: A presently preferred method of determining oxidative stability of lipids and oils employs the Oxidative Stability Index (OSI), which determines the oxidative stability of an oil by passing air through a sample under stringent temperature control. (Firestone, Oxidative Stability Index (OSI): Official Methods of Recommended Practices of the American Oil Chemists' Society (AOCS), 4th Ed. American Oil Chemists Society, Champaign, Ill., AOCS Official Method Cd 12b-92, 1993.) In this method, a stream of air is passed through the oil sample, which aids in the rapid degradation of the triglyceride into volatile organic acids. The air stream flushes the volatile acids from the oil into a conductivity cell containing water where the acids are solubilized. These acids, once dissolved in the water solution, disassociate into ions, thus changing the conductivity of the water. Therefore, a continuous measure of the conductivity of the cell by computer will indicate when a rapid rise in the conductivity occurs that corresponds to the induction point, oxidative failure of the sample. The time to the induction point is the OSI time. […] Saturated fatty acid methyl ester (FAME) standards commercially available from Alltech Associates (Deerfield, Ill.) may be used to calibrate the OSI determinations.
OSI determinations may be performed on an oxidative stability instrument manufactured by Omnion (Rockland, Mass.) using the AOCS method described in the above-disclosed Firestone reference. Lipid or oil samples may be run at 110° C. and FAMEs may be tested at 90° C., with air flow set at 35 kPa with a resulting velocity of about 140 ml/min. A presently preferred method for determining OSI values is described by T. A. Isbell et al., “Oxidative Stability Index of Vegetable Oils in Binary Mixtures with Meadowfoam Oil,” Industrial Crops and Products 9, 115–123 (1999).
Unless otherwise stated, Oxidative Stability Index (OSI) values were determined on 5.00 ±0.05 g lipid or oil samples in triplicate according to AOCS Official Method Cd 12b-92 (AOCS, 1993) at 90° C., 110° C. and/or 130° C. on an oxidative stability instrument manufactured by Omnion (Rockland, Mass.). Details of the procedure have been published by Isbell et al., “Oxidative Stability Index of Vegetable Oils in Binary Mixtures with Meadowfoam Oil,” Ind. Crops Prod. 9, 115–123 (1999). When compounds of the present invention were added to the lipid or oil sample being tested, the compounds (0.1% to 1.0% by weight) were added to the test lipid or oil (20 g) and dissolved or dispersed at room temperature before triplicate 5.00 g samples of lipid or oil with an added compound of the invention were weighed into the OSI test tube.
The 1,3-di(3-methoxybenzyl) thiourea prepared in Example 3 was mixed at 0.1%, 0.5% or 1.0% with refined meadowfoam seed oil (Lot #CW-4551, The Fanning Corp) and the oxidative stability of the mixtures was compared to that of refined meadowfoam seed oil at 130° C. The OSI times were 49.8 h, 159 h and 172 h, respectively, for the mixtures containing the thiourea compared to an OSI time of 14.9 h for this lot of refined meadowfoam seed oil with no additives at 130° C.
Thus, 1,3-bis(2-methoxyphenyl)-2-thiourea (Aldrich Chem Co.) added at 0. […] Likewise, 1,3-bis(3-methoxyphenyl)-2-thiourea at 0. 1% added to refined meadowfoam oil gave an OSI time of 27.0 h, an […] lower value than for the 1,3-di-(3-methoxybenzyl) thiourea produced in Example 3.

[7] = Behaviour on addition of water to DMSO solution (sample preparation); type: physicochemical; details: dissolved in 50 μl DMSO, water added to make 1 mg/ml
Protocol: Test compounds (1–2 mg) were originally made up at a concentration of 1 mg/ml in artificial seawater, except for water insoluble compounds, which were dissolved in 50 μl of dimethyl sulfoxide (DMSO) prior to adding enough water to make a 1 mg/ml solution. Serial dilutions were performed in 100 μl of seawater in triplicate in the wells of a 96-well microplate to give appropriate concentrations. Control wells for both water and DMSO were included with each experiment. A 100 μl solution of naupli (10–30) was added to each well, and the covered plate was incubated for 24 h at 27° C. The number of non-motile, and the total number of, naupli were counted in each well using a binocular microscope (10×). LC50 values were then calculated by Probit analysis (Finney, D. J., 1971, “Probit Analysis,” 3rd Ed.; University Press: Cambridge [Eng.]).

[8] = tested on: Brine Shrimp (Artemia Salina); test: in vivo; details: for toxicity against brine shrimp, in words: as Table 7 shows; for LC50: in vivo
Protocol: as §1, §2

[9] = heated to 30° C. for 4 h, read-out: Solubility at 30° C.
[10] = heated to 50° C. for 4 h, read-out: Solubility at 50° C.
[11] = refined meadowfoam oil, 0.1% additive, 130° C.
[12] = refined meadowfoam oil, 0.1% additive, 130° C. (Example 8)
[13] = refined meadowfoam seed oil plus additive 0.1%, 130° C.
[14] = refined meadowfoam seed oil plus additive 0.5%, 130° C.
[15] = refined meadowfoam seed oil plus additive 1.0%, 130° C.

Row | Decomposition Temperature [2] [°C] | Oxidative Stability (RBOT) [3] [min] | UVBMAX Molar Absorptivity [4] | UVAMAX Molar Absorptivity [4] | solubility at 4 h [5, 9] [µg/mL] | solubility at 4 h [5, 10] [µg/mL] | Compound | LC50 at 24 h [1] [µg/mL] | also measured
1 | > 200 | 24 | 34090 | 1420 | 2760 (≈ 8350 µM) | 1930 (≈ 5830 µM) | COc1ccc(C(=O)NC(=S)NCc2cccc(OC)c2)cc1 [1-(3-methoxybenzyl)-3-(4-methoxybenzoyl) thiourea] | 58 (≈ 176 µM) | –
2 | > 200 | 26 | 2357 | 0.0 | 1050 (≈ 3670 µM) | 1040 (≈ 3620 µM) | COc1cccc(CNC(=S)NCc2ccccc2)c1 [1-(3-methoxybenzyl)-3-benzyl thiourea] | 31.6 (≈ 110 µM) | –
3 | – | – | – | – | – | – | COc1cccc(NC(=S)Nc2cccc(OC)c2)c1 [1,3-bis(3-methoxyphenyl)-2-thiourea] | – | OSI time lower than for 1,3-di-(3-methoxybenzyl) thiourea [6, 11]: 84%; OSI Time [6, 12]: 27.0 h
4 | – | – | 22350 | 54 | – | – | O=C(O)/C=C/c1ccccc1 [trans-cinnamic acid, reference compound] | – | –
5 | – | – | – | – | – | – | COc1cccc(CN)c1 [3-methoxybenzyl amine] | – | OSI Time [6, 13]: 22.9 h; OSI Time [6, 14]: 27.3 h; OSI Time [6, 15]: 32.6 h
6 | – | – | – | – | – | – | O=C1O[C@H]([C@@H](O)CO)C(O)=C1O [ascorbic acid, reference compound] | 315 (≈ 1790 µM) | –
7 | > 200 | 15 | 850 | 0.0 | 280 (≈ 624 µM) | 147 (≈ 328 µM) | CCCCCCCCCCCCCCCCCCNC(=S)NCc1cccc(OC)c1 [1-(3-methoxybenzyl)-3-octadecyl thiourea] | 62.5 (≈ 139 µM) | behaviour upon the addition of water [7]: precipitated out of solution
8 | 273 | 41 | 2625 | 0.0 | 1040 (≈ 2860 µM) | 909 (≈ 2490 µM) | CCCCCCCCCCCCNC(=S)NCc1cccc(OC)c1 [1-(3-methoxybenzyl)-3-dodecyl thiourea] | 3.8 (≈ 10.4 µM) | toxicity against brine shrimp, in words [8]: high enough to consider its use in therapeutic tests for killing cancer cells; Oxidative stability in the RBOT test, in words ([3]; addition of 0.1% compound): doubled; behaviour upon the addition of water [7]: precipitated out of solution
9 | – | – | – | – | – | – | COc1cccc(CN=C=S)c1 [3-methoxybenzyl isothiocyanate] | – | OSI Time [6, 13]: 19.1 h; OSI Time [6, 14]: 22.9 h; OSI Time [6, 15]: 24.0 h
10 | – | – | – | – | – | – | COc1cccc(CC#N)c1 [3-methoxyphenyl acetonitrile] | – | OSI Time [6, 13]: 18.6 h; OSI Time [6, 14]: 19.2 h; OSI Time [6, 15]: 19.9 h
11 | – | – | – | – | – | – | Cc1c(C)c2c(c(C)c1O)CC[C@@](C)(CCC[C@H](C)CCC[C@H](C)CCCC(C)C)O2 [D-α-tocopherol, reference compound] | – | LC50 [8]: >1000 µg/mL
12 | – | – | – | – | – | – | COc1ccccc1NC(=S)Nc1ccccc1OC [1,3-bis(2-methoxyphenyl)-2-thiourea] | – | OSI time lower than for 1,3-di-(3-methoxybenzyl) thiourea [6, 11]: 34%; OSI Time [6, 12]: 37.1 h
13 | – | – | – | – | – | – | COc1cccc(C=O)c1 [3-methoxybenzaldehyde] | – | OSI Time [6, 13]: 17.5 h; OSI Time [6, 14]: 17.4 h; OSI Time [6, 15]: 18.9 h
14 | – | – | – | – | – | – | COc1ccc(O)c(C(C)(C)C)c1 [butylated hydroxy aniline (BHA), butylated hydroxy aniline, reference compound] | – | LC50 [8]: 12.2 µg/mL (≈ 67.7 µM)

Row | Compound | Decomposition Temperature [2] [°C] | Oxidative Stability (RBOT) [3] [min] | UVBMAX Molar Absorptivity [4] | UVAMAX Molar Absorptivity [4] | solubility at 4 h [5, 9] [µg/mL] | solubility at 4 h [5, 10] [µg/mL] | LC50 at 24 h [1] [µg/mL] | also measured
15 | C=CCNC(=S)NCc1cccc(OC)c1 | > 200 | 24 | 2852 | 0.0 | 1670 (≈ 7070 µM) | 981 (≈ 4150 µM) | – | LC50 [1]: 232 µg/mL (≈ 982 µM); toxicity against brine shrimp, in words [8]: low toxicity
